Target: T1, Recombinant human LTC4 synthase (Homo sapiens, UniProt Q16873)
T1 construct: made in house; host or cells: Pichia pastoris ('Piccia pastoralis' [sic])
T1 sequence (Q16873 1-150): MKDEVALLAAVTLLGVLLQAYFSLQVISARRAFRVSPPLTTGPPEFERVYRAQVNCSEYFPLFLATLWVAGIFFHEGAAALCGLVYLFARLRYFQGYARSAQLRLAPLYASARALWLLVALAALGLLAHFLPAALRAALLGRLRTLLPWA
Assay: LTC4 synthase in vitro assay (LTA4 to LTC4, HTRF detection)
Type: biochemical
Details: for inhibition at 10 µM: 5 min, total concentration of title compound in the assay 10 μM
Procedure: In the assay, LTC4 synthase catalyses the reaction where the substrate LTA4 is converted to LTC4. Recombinant human LTC4 synthase is expressed in Piccia pastoralis and the purified enzyme is dissolved in 25 mM tris-buffer pH 7.8 supplemented with 0.1 mM glutathione (GSH) and stored at −80° C. The assay is performed in phosphate buffered saline (PBS) pH 7.4 and 5 mM GSH in 384-well plates.
The following is added chronologically to each well:
1.48 μL LTC4 synthase in PBS with 5 mM GSH. The total protein concentration in this solution is 0.5 μg/mL. 2. 1 μL inhibitor in DMSO (final concentration 10 μM). 3. Incubation of the plate at room temperature for 10 min. 4. 1 μL LTA4 (final concentration 2.5 μM). 5. Incubation of the plate at room temperature for 5 min. 6. 10 μL of the incubation mixture is analysed using homogenous time resolved fluorescent (HTRF) detection.

Structure (SMILES)	IC50 [nM]	inhibition at 10 µM [%]
CON=C(c1ccc(Oc2ccccc2)c(C(=O)O)c1)c1ccc(N(CC2CC2)c2ccc(Cl)cc2)cn1 (mixture of isomers) [Example 13, 5-({5-[(4-Chlorophenyl)(cyclopropylmethyl)amino]-2-pyridyl}(methoxyimino)-methyl)-2-phenoxybenzoic acid]	242	
O=C(O)c1cc(C(=NO)c2ccc(N(CC3CC3)c3ccc(Cl)cc3)cn2)ccc1Oc1ccccc1 (mixture of isomers) [Example 14, 5-({5-[(4-Chlorophenyl)(cyclopropylmethyl)amino]-2-pyridyl}(hydroxyimino)-methyl)-2-phenoxybenzoic acid]	1110	
CN(c1ccc(Cl)cc1)c1ccc(C(=O)c2ccc(Oc3ccc(F)c(F)c3)c(C(=O)O)c2)nc1 [1:2, 5-{5-[(4-Chlorophenyl)(methyl)amino]picolinoyl}-2-(3,4-difluorophenoxy)benzoic acid]	104	98
O=C(c1ccc(Oc2ccccc2)c(C(=O)O)c1)c1ccc(N(CC2CC2)c2ccc(Cl)cc2)cn1 [1:4, 5-{5-[(4-Chlorophenyl)(cyclopropylmethyl)amino]picolinoyl}-2-phenoxybenzoic acid]	62	100
O=C(c1ccc(Oc2ccccc2)c(C(=O)O)c1)c1ccc(N(CC2CCC2)c2ccc(Cl)cc2)cn1 [1:5, 5-{5-[(4-Chlorophenyl)(cyclobutylmethyl)amino]picolinoyl}-2-phenoxybenzoic acid]	70	100
CCOCCN(c1ccc(Cl)cc1)c1ccc(C(=O)c2ccc(Oc3ccccc3)c(C(=O)O)c2)nc1 [1:7, 5-{5-[(4-Chlorophenyl)(2-ethoxyethyl)amino]picolinoyl}-2-phenoxybenzoic acid]	171	99
C=CCN(c1ccc(Cl)cc1)c1ccc(C(=O)c2ccc(Oc3ccccc3)c(C(=O)O)c2)nc1 [1:8, 5-{5-[(Allyl)(4-chlorophenyl)amino]picolinoyl}-2-phenoxybenzoic acid]	88	100
N#CCCCN(c1ccc(Cl)cc1)c1ccc(C(=O)c2ccc(Oc3ccccc3)c(C(=O)O)c2)nc1 [1:10, 5-{5-[(4-Chlorophenyl)(3-cyanopropyl)amino]picolinoyl}-2-phenoxybenzoic acid]	433	98
CN(c1ccc(C(=O)c2ccc(Oc3ccccc3)c(C(=O)O)c2)nc1)c1cccc(C(F)(F)F)c1 [1:11, 5-{5-[(Methyl)(3-trifluoromethylphenyl)amino]picolinoyl}-2-phenoxybenzoic acid]	176	99
CCN(c1ccc(C(=O)c2ccc(Oc3ccccc3)c(C(=O)O)c2)nc1)c1cccc(C(F)(F)F)c1 [1:12, 5-{5-[(Ethyl)(3-trifluoromethylphenyl)amino]picolinoyl}-2-phenoxybenzoic acid]	247	100
O=C(c1ccc(Oc2ccccc2)c(C(=O)O)c1)c1ccc(N(CC2CC2)c2cccc(C(F)(F)F)c2)cn1 [1:14, 5-{5-[(Cyclopropylmethyl)(3-trifluoromethylphenyl)amino]picolinoyl}-2-phenoxybenzoic acid]	197	100
CN(c1ccc(C(F)(F)F)cc1)c1ccc(C(=O)c2ccc(Oc3ccccc3)c(C(=O)O)c2)nc1 [1:15, 5-{5-[(Methyl)(4-trifluoromethylphenyl)amino]picolinoyl}-2-phenoxybenzoic acid]	465	99
CN(c1ccc(C(=O)c2ccc(Oc3ccccc3)c(C(=O)O)c2)nc1)c1ccc(F)c(F)c1 [1:16, 5-{5-[(3,4-Difluorophenyl)(methyl)amino]picolinoyl}-2-phenoxybenzoic acid]	387	98
O=C(c1ccc(Oc2ccccc2)c(C(=O)O)c1)c1ccc(N(CC2CC2)c2ccc(F)c(F)c2)cn1 [1:19, 5-{5-[(Cyclopropylmethyl)(3,4-difluorophenyl)amino]picolinoyl}-2-phenoxybenzoic acid]	130	100
CC(C)(C)c1ccc(N(CC2CC2)c2ccc(C(=O)c3ccc(Oc4ccccc4)c(C(=O)O)c3)nc2)cc1 [1:20, 5-{5-[(4-tert-Butylphenyl)(cyclopropylmethyl)amino]picolinoyl}-2-phenoxybenzoic acid]	549	100
C=CCN(c1ccc(C(=O)c2ccc(Oc3ccccc3)c(C(=O)O)c2)nc1)c1ccc(F)c(F)c1 [1:21, 5-{5-[(Allyl)(3,4-difluorophenyl)amino]picolinoyl}-2-phenoxybenzoic acid]	295	99
CN(c1ccc(Cl)cc1)c1ccc(C(=O)c2ccc(Oc3cccnc3)c(C(=O)O)c2)nc1 [1:24, 5-{5-[(4-Chlorophenyl)(methyl)amino]picolinoyl}-2-(3-pyridyloxy)benzoic acid]	1140	86
O=C(c1ccc(Oc2ccc(F)cc2)c(C(=O)O)c1)c1ccc(N(CC2CC2)c2ccc(Cl)cc2)cn1 [1:27, 5-{5-[(4-Chlorophenyl)(cyclopropylmethyl)amino]picolinoyl}-2-(4-fluorophenoxy)-benzoic acid]	52	
O=C(c1ccc(Oc2ccccc2O)c(C(=O)O)c1)c1ccc(N(CC2CC2)c2ccc(Cl)cc2)cn1 [1:28, 5-{5-[(4-Chlorophenyl)(cyclopropylmethyl)amino]picolinoyl}-2-(2-hydroxyphenoxy)benzoic acid]	44	
COc1cccc(Oc2ccc(C(=O)c3ccc(N(CC4CC4)c4ccc(Cl)cc4)cn3)cc2C(=O)O)c1 [1:30, 5-{5-[(4-Chlorophenyl)(cyclopropylmethyl)amino]picolinoyl}-2-(3-methoxyphenoxy)benzoic acid]	158	
O=C(c1ccc(Oc2ccc3c(c2)OCO3)c(C(=O)O)c1)c1ccc(N(CC2CC2)c2ccc(Cl)cc2)cn1 [1:31, 5-{5-[(4-Chlorophenyl)(cyclopropylmethyl)amino]picolinoyl}-2-(3,4-methylenedioxyphenoxy)benzoic acid]	142	

Further lines, results first:

IC50 [nM]	inhibition at 10 µM [%]	Structure (SMILES)
110	98	CN(c1ccc(Cl)cc1)c1ccc(C(=O)c2ccc(Oc3ccccc3)c(C(=O)O)c2)nc1 [1:1, 5-{5-[(4-Chlorophenyl)(methyl)amino]picolinoyl}-2-phenoxybenzoic acid]
124	98	CN(c1ccc(Cl)cc1)c1ccc(C(=O)c2ccc(Oc3cccc(Cl)c3)c(C(=O)O)c2)nc1 [1:3, 2-(3-Chlorophenoxy)-5-{5-[(4-chlorophenyl)(methyl)amino]picolinoyl}benzoic acid]
61	100	O=C(c1ccc(Oc2ccccc2)c(C(=O)O)c1)c1ccc(N(CC2CCCC2)c2ccc(Cl)cc2)cn1 [1:6, 5-{5-[(4-Chlorophenyl)(cyclopentylmethyl)amino]picolinoyl}-2-phenoxybenzoic acid]
48	99	C#CCN(c1ccc(Cl)cc1)c1ccc(C(=O)c2ccc(Oc3ccccc3)c(C(=O)O)c2)nc1 [1:9, 5-{5-[(4-Chlorophenyl)(2-propynyl)amino]picolinoyl}-2-phenoxybenzoic acid]
290	99	C=CCN(c1ccc(C(F)(F)F)cc1)c1ccc(C(=O)c2ccc(Oc3ccccc3)c(C(=O)O)c2)nc1 [1:13, 5-{5-[(Allyl)(4-trifluoromethylphenyl)amino]picolinoyl}-2-phenoxybenzoic acid]
1310	96	CN(c1ccc(C(C)(C)C)cc1)c1ccc(C(=O)c2ccc(Oc3ccccc3)c(C(=O)O)c2)nc1 [1:17, 5-{5-[(4-tert-Butylphenyl)(methyl)amino]picolinoyl}-2-phenoxybenzoic acid]
141	100	O=C(c1ccc(Oc2ccccc2)c(C(=O)O)c1)c1ccc(N(CC2CC2)c2ccc(C(F)(F)F)cc2)cn1 [1:18, 5-{5-[(Cycloropylmethyl)(4-trifluoromethylphenyl)amino]picolinoyl}-2-phenoxybenzoic acid]
1240	99	CCN(c1ccc(C(C)(C)C)cc1)c1ccc(C(=O)c2ccc(Oc3ccccc3)c(C(=O)O)c2)nc1 [1:22, 5-{5-[(4-tert-Butylphenyl)(ethyl)amino]picolinoyl}-2-phenoxybenzoic acid]
362	100	CSc1ccccc1Oc1ccc(C(=O)c2ccc(N(C)c3ccc(Cl)cc3)cn2)cc1C(=O)O [1:23, 5-{5-[(4-Chlorophenyl)(methyl)amino]picolinoyl}-2-(2-methylsulfanylphenoxy)benzoic acid]
94		COc1ccc(Oc2ccc(C(=O)c3ccc(N(CC4CC4)c4ccc(Cl)cc4)cn3)cc2C(=O)O)cc1 [1:25, 5-{5-[(4-Chlorophenyl)(cyclopropylmethyl)amino]picolinoyl}-2-(4-methoxyphenoxy)benzoic acid]
72		O=C(c1ccc(Oc2ccc(Cl)c(Cl)c2)c(C(=O)O)c1)c1ccc(N(CC2CC2)c2ccc(Cl)cc2)cn1 [1:26, 5-{5-[(4-Chlorophenyl)(cyclopropylmethyl)amino]picolinoyl}-2-(3,4-dichlorophenoxy)benzoic acid]
282		O=C(c1ccc(Oc2ccccc2)c(C(=O)O)c1)c1ccc(Nc2ccc(Cl)cc2)cn1 [1:29, 5-[5-(4-Chlorophenylamino)picolinoyl]-2-phenoxybenzoic acid]

Source: patent US20120004244A1, “Bis Aromatic Compounds for Use as LTC4 Synthase Inhibitors” (BIOLIPOX AB, priority 2009, published 2012)
